Test results published in the NIST ThermoML archive (doi:10.1016/j.jct.2016.07.011).
± gives the expanded uncertainty stated by the source.

Settings: Liquid; for vapor or sublimation pressure: Ebulliometric method (Recirculating still); for mass density / viscosity: 101.33 kPa; for mass density: Vibrating tube method; for viscosity: Falling or rolling sphere viscometry

Row | SMILES | mass density (293.15 K) [kg/m3] | viscosity (295.65 K) [mPa·s] | viscosity (300.15 K) [mPa·s] | mass density (301.55 K) [kg/m3] | viscosity (302.15 K) [mPa·s] | viscosity (304.15 K) [mPa·s] | viscosity (306.15 K) [mPa·s] | mass density (306.15 K) [kg/m3] | viscosity (307.65 K) [mPa·s] | mass density (309.05 K) [kg/m3] | viscosity (309.15 K) [mPa·s] | viscosity (311.65 K) [mPa·s] | mass density (312.65 K) [kg/m3] | viscosity (313.15 K) [mPa·s] | mass density (316.15 K) [kg/m3] | viscosity (318.15 K) [mPa·s] | mass density (319.35 K) [kg/m3] | viscosity (323.15 K) [mPa·s] | mass density (323.25 K) [kg/m3] | mass density (327.05 K) [kg/m3] | further results
1 | CO [methanol] | – | – | – | – | – | – | – | – | – | – | – | – | – | – | – | – | – | – | – | – | vapor or sublimation pressure (337.45 K): 101.3 ± 10 kPa
2 | OCC(F)(F)C(F)F [2,2,3,3-tetrafluoro-1-propanol] | 1493.2 ± 2 | 5.029 ± 0.15 | 4.274 ± 0.14 | 1482.8 ± 2 | 3.794 ± 0.14 | 3.595 ± 0.14 | 3.26 ± 0.14 | 1474.2 ± 2 | 3.067 ± 0.14 | 1468.6 ± 2 | 2.954 ± 0.14 | 2.703 ± 0.14 | 1460.2 ± 2 | 2.568 ± 0.14 | 1454.2 ± 2 | 2.153 ± 0.14 | 1447.6 ± 2 | 1.848 ± 0.14 | 1441.8 ± 2 | 1434 ± 2 | viscosity (298.65 K): 4.489 ± 0.14 mPa·s; viscosity (328.15 K): 1.623 ± 0.14 mPa·s; mass density (330.65 K): 1427.4 ± 2 kg/m3; viscosity (333.15 K): 1.408 ± 0.14 mPa·s; mass density (334.35 K): 1416.8 ± 2 kg/m3; mass density (338.25 K): 1409 ± 2 kg/m3; mass density (342.25 K): 1401 ± 2 kg/m3; vapor or sublimation pressure (382.28 K): 101.3 ± 10 kPa
3 | OCC(F)(F)C(F)(F)C(F)(F)C(F)F [2,2,3,3,4,4,5,5-octafluoro-1-pentanol] | 1674.2 ± 2 | 13.11 ± 0.18 | 10.64 ± 0.17 | 1667 ± 2 | 9.897 ± 0.17 | 8.739 ± 0.16 | 8.04 ± 0.16 | 1659 ± 2 | 7.416 ± 0.15 | 1655.2 ± 2 | 7.072 ± 0.15 | 6.29 ± 0.15 | 1649.2 ± 2 | 5.94 ± 0.15 | 1643 ± 2 | 4.822 ± 0.15 | 1636.4 ± 2 | 3.855 ± 0.14 | 1630.4 ± 2 | 1623.2 ± 2 | viscosity (297.55 K): 12.16 ± 0.18 mPa·s; viscosity (328.15 K): 3.298 ± 0.14 mPa·s; mass density (330.65 K): 1617.8 ± 2 kg/m3; viscosity (333.15 K): 2.782 ± 0.14 mPa·s; mass density (334.35 K): 1609.6 ± 2 kg/m3; mass density (338.25 K): 1603.8 ± 2 kg/m3; mass density (342.25 K): 1596 ± 2 kg/m3; vapor or sublimation pressure (413.25 K): 101.3 ± 10 kPa; vapor or sublimation pressure (413.57 K): 101.3 ± 10 kPa
